Laboratory results published in article PMC8453635, “Piperidine Azasugars Bearing Lipophilic Chains: Stereoselective Synthesis and Biological Activity as Inhibitors of Glucocerebrosidase (GCase)” (The Journal of Organic Chemistry, 2021).

Target: T1, GCase (Homo sapiens, UniProt P04062)
T1 construct: screened toward GCase in leukocytes isolated from healthy donors (controls); from tissue; host or cells: leukocytes isolated from healthy donors, disrupted by sonication
T1 sequence (P04062 40-536): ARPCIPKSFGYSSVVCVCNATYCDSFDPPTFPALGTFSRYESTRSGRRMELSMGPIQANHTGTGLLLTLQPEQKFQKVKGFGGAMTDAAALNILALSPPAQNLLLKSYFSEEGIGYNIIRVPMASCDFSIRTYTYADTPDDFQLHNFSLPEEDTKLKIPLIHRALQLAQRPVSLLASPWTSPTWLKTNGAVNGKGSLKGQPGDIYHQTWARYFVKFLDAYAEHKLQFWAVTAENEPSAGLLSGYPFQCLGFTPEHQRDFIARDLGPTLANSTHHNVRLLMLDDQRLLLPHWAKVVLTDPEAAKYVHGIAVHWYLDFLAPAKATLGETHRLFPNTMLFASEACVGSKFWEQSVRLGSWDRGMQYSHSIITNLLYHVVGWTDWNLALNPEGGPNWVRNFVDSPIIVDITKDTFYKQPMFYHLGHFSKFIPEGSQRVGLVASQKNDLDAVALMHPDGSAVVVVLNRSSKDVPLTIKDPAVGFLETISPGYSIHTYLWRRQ
Assay: GCase inhibition in human leukocyte homogenates
Format: biochemical
Conditions: for GCase inhibition [%]: human leukocytes extracts incubated with azasugars (1 mM); for IC50: human leukocytes from healthy donors, substrate 4-methylumbelliferyl-β-D-glucoside 3.33 mM
Procedure: Compounds 14, 15, and 33·HCl were then tested at 1 mM for GCase inhibition in human leukocyte homogenates. The results obtained were compared with data of previously reported compounds 9, 11, and 12.[12],[16],[17]
The compounds 14, 15, and 33·HCl were screened toward GCase in leukocytes isolated from healthy donors (controls). Isolated leukocytes were disrupted by sonication, and a micro BCA protein assay kit (Sigma-Aldrich) was used to determine the total protein amount for the enzymatic assay, according to the manufacturer instructions. Enzyme activity was measured in a flat-bottomed 96-well plate. Compound solution (3 μL), 4.29 μg/μL leukocytes homogenate (7 μL), and substrate 4-methylumbelliferyl-β-D-glucoside (3.33 mM, 20 μL, Sigma-Aldrich) in citrate/phosphate buffer (0.1:0.2, M/M, pH 5.8) containing sodium taurocholate (0.3%) and Triton X-100 (0.15%) at 37 °C were incubated for 1 h. The reaction was stopped by addition of sodium carbonate (200 μL; 0.5 M, pH 10.7) containing Triton X-100 (0.0025%), and the fluorescence of 4-methylumbelliferone released by β-glucosidase activity was measured in SpectraMax M2 microplate reader (λex = 365 nm, λem = 435 nm; Molecular Devices). Percentage GCase inhibition is given with respect to the control (without compound). Data are mean SD (n = 3).
The IC50 values of inhibitors against GCase were determined by measuring the initial hydrolysis rate with 4-methylumbelliferyl-β-D-glucoside (3.33 mM). Data obtained were fitted by using the appropriate Equation (for more details, see the Supporting Information section).
Percentage of GCase inhibition of compounds 14, 15 and 33.HCl towards human GCase Percentage of GCase inhibition of the whole collection of compounds in human leukocytes extracts incubated with iminosugars at 1 mM concentration.
IC50 determination: The IC50 values of inhibitors against GCase were determined by measuring the initial hydrolysis rate with 4-methylumbelliferyl-β-D-glucoside (3.33 mM). Data obtained were fitted to the following equation using the Origin Microcal program. where Vi/Vo, represent the ratio between the activity measured in the presence of the inhibitor (Vi) and the activity of the control without the inhibitor (V0), “x” the inhibitor concentration, Max and Min, the maximal and minimal enzymatic activity observed, respectively.
(also on this page, place not known: Min IC x MinMax Vo Vi slope + […] […] […] […] […] […]+ −= 50 1 (V i) activity nmoli/mg/h)
(1 picture or pasted object on this page, not shown here)

CCCCCCCC[C@H]1[C@@H](O)[C@H](O)[C@H](O)CN1CCCCCCCC [compound 14, (2S,3R,4R,5R)-1,2-Dioctylpiperidine-3,4,5-triol]
GCase inhibition [%]: 100%
IC50: 100 ± 9 µM

CCCCCCCC[C@@H]1[C@@H](O)[C@H](O)[C@H](O)CN1CCCCCCCC [compound 15, (2R,3R,4R,5R)-1,2-Dioctylpiperidine-3,4,5-triol]
GCase inhibitory activity relative to monoalkylated counterpart 12 (comparison of IC50 values): twofold more active
GCase inhibition [%]: 100%
IC50: 15 ± 4 µM

CCCCCCCC[C@@H]1[C@@H](O)[C@H](O)[C@H](O)CN1C(CCCCCCC)CCCCCCC.Cl [compound 33·HCl, (2R,3R,4R,5R)-2-Octyl-1-(pentadecan-8-yl)-piperidine-3,4,5-triol Hydrochloride]
GCase inhibition [%]: 75%
IC50: 130 ± 15 µM
